Results from the supplement of paper PMC11208160.

assay: recombinant UMI read abundance after kanamycin selection (control-corrected) (log10(CPM+1)); higher = more efficient recombination; extreme values may be limits of the assay; sequences stand for … in AGTGCAGAGAAAATCGGCCAGTTTTCTCTGCCTGCAGTCCGCATGCCGTGGGACCCCTTGGGTTCTAACCTGTTGCCTAGATTTATGCAGCGGACTGCCTTTCTCCCAAAGTGATAAACCGG…AGGTTGGTTTCACT; site = the 11-nt donor
Method: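 Pooled E. coli donor-specificity screen for the IS621 bridge recombinase. Each library member carries a reprogrammed 11-nt donor and a full-length LE bridge RNA expressed in cis from the natural promoter, with a paired donor-binding loop (8-nt LDG + 4-nt RDG) and a target-binding loop fixed to T5. It is co-electroporated with a T5 target plasmid; recombinase is induced with 0.07 mM IPTG and recombinants are selected on kanamycin. UMIs are counted as CPM, averaged over two biological replicates and corrected by the unselected control. Molecule = full bridge RNA written as DNA, built from the T5 scaffold: LDG = donor specificity nt 1-8, RDG = reverse complement of nt 8-11.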
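Also: IS621 bridge recombinase in Escherichia coli cells against a fixed T5 target plasmid.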

Row | Sequence | recombinant UMI read abundance (log10)
1 | AAAACACCATGGACCGGTTTTCCCGGTAATCCGTATTTGCG (site AAAACACCTCG) | 0.012
2 | AAAACCCCATGGACCGGTTTTCCCGGTAATCCGTATTTGGA (site AAAACCCCTTC) | 0.00874
3 | AAAACTACATGGACCGGTTTTCCCGGTAATCCGTATTTGCG (site AAAACTACTCG) | 1.1
4 | AAAAGAACATGGACCGGTTTTCCCGGTAATCCGTATTTGAA (site AAAAGAACTTT) | 2.03
5 | AAAAGACCATGGACCGGTTTTCCCGGTAATCCGTATTTGTA (site AAAAGACCTTA) | 0
6 | AAAAGCACATGGACCGGTTTTCCCGGTAATCCGTATTTGCA (site AAAAGCACTTG) | 2.36
7 | AAACATACATGGACCGGTTTTCCCGGTAATCCGTATTTGTG (site AAACATACTCA) | 1.38
8 | AAACCAGCATGGACCGGTTTTCCCGGTAATCCGTATTTGGC (site AAACCAGCTGC) | 0
9 | AAAGCTCCATGGACCGGTTTTCCCGGTAATCCGTATTTGCG (site AAAGCTCCTCG) | 0.472
10 | AAAGCTTCATGGACCGGTTTTCCCGGTAATCCGTATTTGGG (site AAAGCTTCTCC) | 0.447
11 | AAAGGGGCATGGACCGGTTTTCCCGGTAATCCGTATTTGGG (site AAAGGGGCTCC) | 0
12 | AAAGTAGCATGGACCGGTTTTCCCGGTAATCCGTATTTGGC (site AAAGTAGCTGC) | 2.01
13 | AAAGTCACATGGACCGGTTTTCCCGGTAATCCGTATTTGAC (site AAAGTCACTGT) | 2.44
14 | AAATATTCATGGACCGGTTTTCCCGGTAATCCGTATTTGGG (site AAATATTCTCC) | 0.372
15 | AAATCAGCATGGACCGGTTTTCCCGGTAATCCGTATTTGTT (site AAATCAGCTAA) | 0.425
16 | AAATCGTCATGGACCGGTTTTCCCGGTAATCCGTATTTGCT (site AAATCGTCTAG) | 2.36
17 | AACAGACCATGGACCGGTTTTCCCGGTAATCCGTATTTGCG (site AACAGACCTCG) | 0
18 | AACAGACCATGGACCGGTTTTCCCGGTAATCCGTATTTGTA (site AACAGACCTTA) | 1.25
19 | AACAGCCCATGGACCGGTTTTCCCGGTAATCCGTATTTGCA (site AACAGCCCTTG) | 0.756
20 | AACAGCGCATGGACCGGTTTTCCCGGTAATCCGTATTTGAC (site AACAGCGCTGT) | 2
21 | AACATGCCATGGACCGGTTTTCCCGGTAATCCGTATTTGCT (site AACATGCCTAG) | 1.43
22 | AACCAAACATGGACCGGTTTTCCCGGTAATCCGTATTTGAA (site AACCAAACTTT) | 1.31
23 | AACCCAACATGGACCGGTTTTCCCGGTAATCCGTATTTGAC (site AACCCAACTGT) | 2.68
24 | AACCGACCATGGACCGGTTTTCCCGGTAATCCGTATTTGAT (site AACCGACCTAT) | 0.0205

Row | Sequence | recombinant UMI read abundance (log10)
25 | AACCGACCATGGACCGGTTTTCCCGGTAATCCGTATTTGAT (site AACCGCCCTAT) | 0
26 | AACCGACCATGGACCGGTTTTCCCGGTAATCCGTATTTGAT (site AACCGGCCTAT) | 0.0183
27 | AACCGACCATGGACCGGTTTTCCCGGTAATCCGTATTTGAT (site AACCGTCCTAT) | 0.0119
28 | AACCGTGCATGGACCGGTTTTCCCGGTAATCCGTATTTGTG (site AACCGTGCTCA) | 0.0421
29 | AACCTTCCATGGACCGGTTTTCCCGGTAATCCGTATTTGAT (site AACCATCCTAT) | 0.00673
30 | AACCTTCCATGGACCGGTTTTCCCGGTAATCCGTATTTGAT (site AACCCTCCTAT) | 0.0165
31 | AACCTTCCATGGACCGGTTTTCCCGGTAATCCGTATTTGAT (site AACCGTCCTAT) | 0.0124
32 | AACCTTCCATGGACCGGTTTTCCCGGTAATCCGTATTTGAT (site AACCTTCCTAT) | 0
33 | AACGATGCATGGACCGGTTTTCCCGGTAATCCGTATTTGAC (site AACGATGCTGT) | 2.22
34 | AACGCCGCATGGACCGGTTTTCCCGGTAATCCGTATTTGTC (site AACGCCGCTGA) | 2.24
35 | AACGGTCCATGGACCGGTTTTCCCGGTAATCCGTATTTGAT (site AACAGTCCTAT) | 0.00739
36 | AACGGTCCATGGACCGGTTTTCCCGGTAATCCGTATTTGAT (site AACCGTCCTAT) | 0
37 | AACGGTCCATGGACCGGTTTTCCCGGTAATCCGTATTTGAT (site AACGGTCCTAT) | 0
38 | AACGGTCCATGGACCGGTTTTCCCGGTAATCCGTATTTGAT (site AACTGTCCTAT) | 0.145
39 | AACGTAACATGGACCGGTTTTCCCGGTAATCCGTATTTGCT (site AAAGTAACTAG) | 0.893
40 | AACGTAACATGGACCGGTTTTCCCGGTAATCCGTATTTGCT (site AACGTAACTAG) | 2.51
41 | AACGTAACATGGACCGGTTTTCCCGGTAATCCGTATTTGCT (site AAGGTAACTAG) | 0.524
42 | AACGTAACATGGACCGGTTTTCCCGGTAATCCGTATTTGCT (site AATGTAACTAG) | 1.49
43 | AACGTATCATGGACCGGTTTTCCCGGTAATCCGTATTTGCA (site AACGTATCTTG) | 2.73
44 | AACGTATCATGGACCGGTTTTCCCGGTAATCCGTATTTGCA (site ACAGTATCTTG) | 1.07
45 | AACGTCTCATGGACCGGTTTTCCCGGTAATCCGTATTTGTC (site AACGTCTCTGA) | 3.05
46 | AACGTGTCATGGACCGGTTTTCCCGGTAATCCGTATTTGTT (site AACGTGTCTAA) | 2.59
47 | AACTAGACATGGACCGGTTTTCCCGGTAATCCGTATTTGAG (site AACTAGACTCT) | 1.48
48 | AACTATACATGGACCGGTTTTCCCGGTAATCCGTATTTGGT (site AACTATACTAC) | 1.26

Row | Sequence | recombinant UMI read abundance (log10)
49 | AACTCATCATGGACCGGTTTTCCCGGTAATCCGTATTTGAA (site AACTCATCTTT) | 1.19
50 | AACTCGCCATGGACCGGTTTTCCCGGTAATCCGTATTTGCT (site AACTCGCCTAG) | 1.56
51 | AACTCGCCATGGACCGGTTTTCCCGGTAATCCGTATTTGTT (site AACTCGCCTAA) | 0.0268
52 | AACTGGTCATGGACCGGTTTTCCCGGTAATCCGTATTTGAC (site AACTGGTCTGT) | 1.18
53 | AAGAATTCATGGACCGGTTTTCCCGGTAATCCGTATTTGTA (site AAGAATTCTTA) | 2.33
54 | AAGACCGCATGGACCGGTTTTCCCGGTAATCCGTATTTGCC (site AAGACCGCTGG) | 2.73
55 | AAGATGCCATGGACCGGTTTTCCCGGTAATCCGTATTTGTG (site AAGATGCCTCA) | 0.653
56 | AAGATTCCATGGACCGGTTTTCCCGGTAATCCGTATTTGTA (site AAGATTCCTTA) | 1.3
57 | AAGCACGCATGGACCGGTTTTCCCGGTAATCCGTATTTGAG (site AAGCACGCTCA) | 0.629
58 | AAGCACGCATGGACCGGTTTTCCCGGTAATCCGTATTTGAG (site AAGCACGCTCC) | 0.225
59 | AAGCACGCATGGACCGGTTTTCCCGGTAATCCGTATTTGAG (site AAGCACGCTCG) | 0.644
60 | AAGCACGCATGGACCGGTTTTCCCGGTAATCCGTATTTGAG (site AAGCACGCTCT) | 1.49
61 | AAGCACGCATGGACCGGTTTTCCCGGTAATCCGTATTTGCG (site AAGCACGCTCA) | 0.289
62 | AAGCACGCATGGACCGGTTTTCCCGGTAATCCGTATTTGCG (site AAGCACGCTCC) | 0.223
63 | AAGCACGCATGGACCGGTTTTCCCGGTAATCCGTATTTGCG (site AAGCACGCTCG) | 1.44
64 | AAGCACGCATGGACCGGTTTTCCCGGTAATCCGTATTTGCG (site AAGCACGCTCT) | 0.766
65 | AAGCACGCATGGACCGGTTTTCCCGGTAATCCGTATTTGGC (site AAGCACGCTAC) | 0.701
66 | AAGCACGCATGGACCGGTTTTCCCGGTAATCCGTATTTGGC (site AAGCACGCTCC) | 0.0935
67 | AAGCACGCATGGACCGGTTTTCCCGGTAATCCGTATTTGGC (site AAGCACGCTGC) | 2.71
68 | AAGCACGCATGGACCGGTTTTCCCGGTAATCCGTATTTGGC (site AAGCACGCTTC) | 0.476
69 | AAGCACGCATGGACCGGTTTTCCCGGTAATCCGTATTTGGT (site AAGCACGCTAC) | 1.48
70 | AAGCACGCATGGACCGGTTTTCCCGGTAATCCGTATTTGGT (site AAGCACGCTCC) | 0.315
71 | AAGCACGCATGGACCGGTTTTCCCGGTAATCCGTATTTGGT (site AAGCACGCTGC) | 1.24
72 | AAGCACGCATGGACCGGTTTTCCCGGTAATCCGTATTTGGT (site AAGCACGCTTC) | 0.427
